In this assay the test system is ovarian carcinoma cell line (SKOV3). Briefly: Serum starved, EGF stimulated proliferation assay on ovarian carcinoma SKOV3 cells (MTT). The assay is classed as cell-based. The note with it: Homo sapiens, SK-OV-3, serum free, 72 hours EGF 100 ng/ml, b231 calls the values pIC50, read-out: SKOV3 cell (C3): IC50 (converted). The method, then: The ovarian carcinoma cell line (SKOV3) was used in an epidermal growth factor stimulated cell proliferation assay, to assess the inhibitory effect of the compounds on EGF in whole cells. In a first step the SKOV3 cells were incubated for 24 hours in the presence of 10% FCS serum. In the second step the cells were incubated with the compounds to be tested in a serum free condition (37° C. and 5% (v/v) CO2) and subsequently stimulated for 72 hours with EGF at a final concentration of 100 ng/ml. The effect of the compounds on the EGF stimulation was finally assessed in a standard MTT cell viability assay.

The record followed here is patent US8778920B2, “3-cyano-quinoline derivatives with antiproliferative activity” (Janssen Pharmaceutica NV, priority 2004, dated 2014).

Counter-ions that a name gives are not always drawn.

One may read the IC50 as the concentration at which inhibition is half-maximal.

Take `COc1cc2ncc(C#N)c3c2cc1OCCCCCNCc1ccc(Br)cc1N3` [Compound 2, 4,6-ethanediylidenepyrido[4,3-b][6,1,12]benzoxadiazacyclopentadecine-1-carbonitrile, 17-bromo-8,9,10,11,12,13,14,19-octahydro-20-methoxy-, monohydrochloride]: the IC50 is 158 nM.
